Results reported in patent EP0846114B1, “3-PYRIDYLOXYALKYL HETEROCYCLIC ETHER COMPOUNDS USEFUL IN CONTROLLING CHEMICAL SYNAPTIC TRANSMISSION” (priority 1995, dated 1996).
Structures can show the parent of a compound that is named as a salt. Where two headings read alike, the source gives them in different places.

What was measured:
[1] = biological target: T1, neuronal nicotinic cholinergic channel receptors (Rattus norvegicus, UniProt P09483+P12390); assay: [3H]-cytisine radioligand displacement binding (Protocol A)
T1 construct: crude synaptic membrane preparations from whole rat brain; from tissue; host or cells: whole rat brain, crude synaptic membranes
T1 sequence (P09483 31-630): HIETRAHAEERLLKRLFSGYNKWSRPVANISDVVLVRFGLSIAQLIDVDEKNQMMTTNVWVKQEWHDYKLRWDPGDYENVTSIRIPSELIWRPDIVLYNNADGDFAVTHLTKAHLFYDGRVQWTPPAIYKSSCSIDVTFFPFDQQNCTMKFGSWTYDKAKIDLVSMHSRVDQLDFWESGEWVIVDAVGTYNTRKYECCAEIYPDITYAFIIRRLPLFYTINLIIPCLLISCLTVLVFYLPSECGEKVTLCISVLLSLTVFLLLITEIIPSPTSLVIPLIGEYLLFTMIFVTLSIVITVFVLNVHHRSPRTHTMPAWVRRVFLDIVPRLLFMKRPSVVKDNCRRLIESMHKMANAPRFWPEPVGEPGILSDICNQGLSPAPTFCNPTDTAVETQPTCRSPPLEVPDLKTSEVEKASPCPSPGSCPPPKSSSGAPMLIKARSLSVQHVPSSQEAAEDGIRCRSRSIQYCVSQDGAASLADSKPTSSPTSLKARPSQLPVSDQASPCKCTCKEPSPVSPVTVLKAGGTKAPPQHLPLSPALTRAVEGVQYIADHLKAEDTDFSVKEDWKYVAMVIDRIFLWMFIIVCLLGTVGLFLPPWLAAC
T1 sequence (P12390 25-500): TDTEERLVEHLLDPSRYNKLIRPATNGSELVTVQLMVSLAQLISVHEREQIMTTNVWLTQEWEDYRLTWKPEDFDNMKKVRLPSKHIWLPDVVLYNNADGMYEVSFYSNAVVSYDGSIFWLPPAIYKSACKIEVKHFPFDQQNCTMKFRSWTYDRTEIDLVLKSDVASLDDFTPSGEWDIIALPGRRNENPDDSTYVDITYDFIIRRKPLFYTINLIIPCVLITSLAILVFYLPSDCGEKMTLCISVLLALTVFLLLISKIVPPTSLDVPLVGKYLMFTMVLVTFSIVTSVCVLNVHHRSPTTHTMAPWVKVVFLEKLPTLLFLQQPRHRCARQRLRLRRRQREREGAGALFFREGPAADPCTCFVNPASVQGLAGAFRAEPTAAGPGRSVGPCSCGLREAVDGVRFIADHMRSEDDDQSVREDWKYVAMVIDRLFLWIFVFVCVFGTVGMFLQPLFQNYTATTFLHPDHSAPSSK
Experimental: Binding of [^3H]-cytisine ([^3H]-CYT) to nicotinic receptors was accomplished using crude synaptic membrane preparations from whole rat brain (Pabreza et al., Molecular Pharmacol., 1990, 39:9). Washed membranes were stored at -80°C prior to use. Frozen aliquots were slowly thawed and resuspended in 20 volumes of buffer (containing: 120 mM NaCl, 5 mM KCl, 2 mM MgCl2, 2 mM CaCl2 and 50 mM Tris-Cl, pH 7.4 @4°C). After centrifuging at 20,000x g for 15 minutes, the pellets were resuspended in 30 volumes of buffer. Homogenate (containing 125-150 µg protein) was added to triplicate tubes containing concentrations of test compound and [^3H]-CYT (1.25 nM) in a final volume of 500 µL. Samples were incubated for 60 minutes at 4°C, then rapidly filtered through Whatman GF/B filters presoaked in 0.5% polyethyleneimine using 3 x 4 mL of ice-cold buffer. The filters are counted in 4 mL of Ecolume® (ICN). […] Alternately, data were expressed as a percentage of the total specific binding.

[2] = system: Neuronal Nicotinic Cholinergic Channels in IMR-32 Cells; assay: 86Rb+ efflux in IMR-32 cells (Protocol B); details: for IMR-32 maximal response: percent relative to the response elicited by 100 µM (S)-nicotine; for EC50: read-out: IMR-32 EC50, activation of 86Rb+ efflux, IMR-32 human neuroblastoma cells
Experimental: For the purpose of directly evaluating the ability of test compounds to functionally activate or inhibit certain subtypes of neuronal nicotinic cholinergic channels, an assay to determine ^86Rb^+ efflux in IMR-32 cells was employed (Protocol B below).
Experimental cells were seeded at a density of 500,000 cells/mL into a 24-well tissue culture dish. Plated cells were allowed to proliferate for at least 48 hours before loading with 2 µCi/mL of ^86Rb^+ (35 Ci/mmol) overnight at 37°C.

[3] = displacement of [3H]-CYT (1.25 nM), crude synaptic membranes from whole rat brain, IC50 converted to Ki (Cheng and Prusoff), read-out: Binding
[4] = inhibition of the efflux elicited by 100 µM (S)-nicotine, single dose 1 µM
[5] = inhibition of the efflux elicited by 100 µM (S)-nicotine, single dose 10 µM

Compound | Ki [1, 3] [nM] | IMR-32 maximal response [2] [%] | EC50 [2] [nM] | % Inhibition @ 1 µM [2] [%] | Ki [1] [nM] | % Inhibition @ 1 µM [2, 4] [%] | % Inhibition @ 10 µM [2, 5] [%] | % Inhibition @ 10 µM [2] [%]
5-Ethyl-6-chloro-3-(1-methyl-2-(S)-pyrrolidinylmethoxy)pyridine hydrochloride [Example 47] | 0.065 | 152 | 22000 |  |  |  |  | 
Cl.Clc1ncc(OC[C@@H]2CCN2)cc1Br [Example 2, 5-Bromo-6-chloro-3-(2-(S)-azetidinylmethoxy)pyridine hydrochloride] |  | 120 | 100 |  |  |  |  | 
CN1CC[C@H]1COc1cnc(Cl)c(Br)c1.Cl [Example 3, 5-Bromo-6-chloro-3-(1-methyl-2-(S)-azetidinylmethoxy)pyridine hydrochloride] | 0.38 |  |  | 55 |  |  |  | 
CN1CCC[C@H]1COc1cnc(Cl)c(Br)c1.Cl.Cl [Example 5, 5-Bromo-6-chloro-3-(1-methyl-2-(S)-pyrrolidinylmethoxy)pyridine dihydrochloride] |  | 12 |  |  | 0.35 | 12 | 22 | 
Cl.Cl.Clc1ncc(OC[C@H]2CCCN2)cc1Br [Example 7, 5-bromo-6-chloro-3-(2-(R)-pyrrolidinylmethoxy)pyridine dihydrochloride] |  | 70 | 4900 |  | 0.099 |  |  | 
CN1CCC[C@@H]1COc1cnc(Cl)c(Br)c1.Cl [Example 8, 5-bromo-6-chloro-3-(1-methyl-2-(R)-pyrrolidinylmethoxy)pyridine hydrochloride] |  | 10.6 |  |  | 13 | 28 | 60 | 
Cl.Clc1cc(OC[C@H]2CCCN2)cnc1Cl [Example 9, 5,6-Dichloro-3-(2-(R)-pyrrolidinylmethoxy)pyridine hydrochloride] | 0.03 | 67 | 1600 |  |  |  |  | 
CN1CCC[C@@H]1COc1cnc(Cl)c(Cl)c1.Cl [Example 10, 5,6-Dichloro-3-(1-methyl-2-(R)-pyrrolidinylmethoxy)pyridine hydrochloride] | 20 | 3.3 |  | 18 |  |  |  | 90
Cl.Clc1cc(OC[C@@H]2CCCN2)cnc1Cl [Example 11, 5,6-Dichloro-3-(2-(S)-pyrrolidinylmethoxy)pyridine hydrochloride] | 0.029 | 93 | 600 |  |  |  |  | 
CN1CCC[C@H]1COc1cnc(Cl)c(Cl)c1.Cl [Example 12, 5,6-Dichloro-3-(1-methyl-2-(S)-pyrrolidinylmethoxy)pyridine hydrochloride] | 0.11 | 16 |  | 5 |  |  |  | 8
Cl.Clc1cc(OC[C@@H]2CCN2)cnc1Cl [Example 15, 5,6-dichloro-3-(2-(S)-azetidinylmethoxy)pyridine hydrochloride] |  | 152 | 300 |  |  |  |  | 
CN1CC[C@H]1COc1cnc(Cl)c(Cl)c1.Cl [Example 16, 5,6-dichloro-3-(1-methyl-2-(S)-azetidinylmethoxy)pyridine hydrochloride] | 0.7 | 37 | 500 | 35 |  |  |  | 
Cl.Clc1cc(OC[C@H]2CCN2)cnc1Cl [Example 17, 5,6-dichloro-3-(2-(R)-azetidinylmethoxy)pyridine hydrochloride] |  | 108 | 200 |  | 0.06 |  |  | 
CN1CC[C@@H]1COc1cnc(Cl)c(Cl)c1.Cl [Example 18, 5,6-dichloro-3-(1-methyl-2-(R)-azetidinylmethoxy)pyridine hydrochloride] | 2.4 | 22.5 |  | 0 |  |  |  | 18
CCc1cc(OC[C@@H]2CCN2)cnc1Cl.Cl [Example 45, 5-Ethyl-6-chloro-3-(2-(S)-azetidinylmethoxy)pyridine hydrochloride] |  | 137 | 400 |  | 0.04 |  |  | 
CCc1cc(OC[C@@H]2CCCN2)cnc1Cl.Cl [Example 46, 5-Ethyl-6-chloro-3-(2-(S)-pyrrolidinylmethoxy)pyridine hydrochloride] | 0.6 | 11 |  |  |  |  |  | 
CCc1cc(OC[C@H]2CCCN2)cnc1Cl.Cl [Example 48, 5-Ethyl-6-chloro-3-(2-(R)-pyrrolidinylmethoxy)pyridine hydrochloride] | 0.027 | 129 | 56000 |  |  |  |  | 
Cl.N#Cc1cc(OC[C@@H]2CCN2)cnc1Cl [Example 49, 5-Cyano-6-chloro-3-(2-(S)-azetidinylmethoxy)pyridine hydrochloride] | 0.097 | 158 | 290 |  |  |  |  | 
CN1CC[C@H]1COc1cnc(Cl)c(C#N)c1.Cl [Example 50, 5-Cyano-6-chloro-3-(1-methyl-2-(S)-azetidinylmethoxy)pyridine hydrochloride] | 0.88 | 35 | 10000 |  |  |  |  | 
NC(=O)c1cc(OC[C@@H]2CCN2)cnc1Cl [Example 51, hydrochloride] | 0.19 | 64 | 16000 |  |  |  |  | 
Cc1ncc(OC[C@@H]2CCN2)cc1Br.Cl [Example 52, 5-bromo-6-methyl-3-(2-(S)-azetidinylmethoxy)pyridine hydrochloride] |  | 124 | 1600 |  |  |  |  | 
